Data as given in publication PMC11579209, “Population pharmacokinetics and exposure–response relationships of maribavir in transplant recipients with cytomegalovirus infection” (Journal of Pharmacokinetics and Pharmacodynamics, 2024).
Like-named read-outs stand apart in the source and are kept apart here.

Legend:
CMV = conditions: SOLSTICE, maribavir 400 mg BID vs IAT, cited from earlier work
[1] = cited from earlier work
plasma proteins = tested on: plasma proteins; parameters: method as in earlier work; conditions: cited from earlier work
[2] = Individual predicted steady-state PK parameters (400 mg BID) derived from the final PopPK model; format: in vivo; conditions: for Ctrough.ss, geometric mean (%CV) / AUC / Cmax / half-life: 400 mg BID steady state; for AUC / Cmax / half-life: human, plasma, oral, 400 mg; for AUC: read-out: AUC0–τ, geometric mean (%CV); for Cmax: read-out: Cmax.ss, geometric mean (%CV); for half-life: read-out: Half-life, geometric mean (%CV) (converted)
Experimental: The final model was used to derive individual estimates of steady-state AUC over one dosing interval (AUC0–τ), Cmax.ss, and minimum maribavir plasma concentration (Ctrough.ss) for a 400 mg BID dosing regimen for all participants in the PopPK analysis. Individual estimates of Cmax.ss, Ctrough.ss, and AUC0–τ were obtained by prediction of the concentration–time profiles (concentrations predicted at 0, 1, 2, 3, 4, 6, 8 and 12 h) after a steady-state dose of 400 mg BID for respective individuals using their individual post hoc parameter values in the absence of strong CYP3A4 inducers or strong CYP3A4 inhibitors, and zero values for residual variability. The PK parameters AUC0–τ (linear up/log down trapezoidal rule), Cmax.ss, and Ctrough.ss were determined by non-compartmental methods.
The mean (percentage coefficient of variation [CV%]), geometric mean (GM) CV%, median, and percentiles for AUC0–τ, Cmax.ss, and Ctrough.ss were obtained overall and by health status (healthy individuals, all transplant recipients with CMV infection, and transplant recipients with refractory CMV infection in the phase 3 SOLSTICE study). For transplant patients with CMV infections, summary statistics were provided by covariates of interest including age (18 to < 65 years and ≥ 65 years; 18 to < 65 years, 65 to < 75 years, and 75 to < 85 years), sex, race, ethnicity, body mass index (BMI; underweight [< 18.5 kg/m^2], normal weight [18.5 to < 25 kg/m^2], overweight [25 to < 30 kg/m^2], obese [≥ 30 kg/m^2]), concurrent PPI, concurrent H2 inhibitors, transplant type, baseline plasma CMV DNA (low and intermediate/high), CMV category, hepatic impairment (none, Child-Pugh Class A, Child-Pugh Class B), presence of CMV mutations at baseline, and baseline use of antilymphocyte antibody. For the PPI and H2 inhibitor analyses, PK parameters were computed only for patients receiving the relevant concomitant medication for all their PK observations and for those who never received the relevant concomitant medication. For healthy individuals, summary statistics were provided by the following covariates of interest: age (≤ 65 years, > 65 years), sex, race, ethnicity, and BMI.

[3] = tested on: Cytochrome P450 (CYP) 3A4; parameters: method as in PMID 12654667, doi:10.1016/j.bbmt.2018.12.600; conditions: formation of VP44469; cited from earlier work
[4] = tested on: Cytochrome P450 (CYP) 1A2; parameters: method as in PMID 12654667, doi:10.1016/j.bbmt.2018.12.600; conditions: formation of VP44469; cited from earlier work
[5] = all transplant patients with CMV infection, n = 485
[6] = refractory CMV infection (SOLSTICE only), n = 253
[7] = transplant patients with CMV, 400 mg BID
[8] = transplant patients with CMV, n = 5 in older group

SMILES: CC(C)Nc1nc2cc(Cl)c(Cl)cc2n1[C@H]1O[C@@H](CO)[C@H](O)[C@@H]1O [maribavir]
- Proportion of patients achieving key secondary endpoint (CMV viremia clearance and symptom control at end of week 8, maintained through week 16) (CMV): 18.7%
- Proportion of patients achieving primary endpoint (confirmed CMV viremia clearance at week 8) (CMV; transplant recipients with refractory CMV): 55.7%
- Time to steady-state exposure ([1]; 400 mg BID, transplant recipients with CMV infection): ≤ 2 days
- PK in patients with mild or moderate hepatic impairment [1]: unaffected
- Renal excretion as share of total clearance of unchanged drug [1]: < 2%
- Systemic exposure in healthy Japanese individuals compared with White individuals [1]: higher
- Mean half-life ([1]; healthy volunteers): 3.0 to 4.8 h
- Median time to maximum plasma concentration (Tmax) ([1]; oral administration): 1 to 3 h
- Dose proportionality of PK ([1]; single doses of up to 1600 mg and multiple doses up to 2400 mg per day): dose-proportional
- Mean half-life ([1]; transplant recipients): 4.3 h
- Bound to plasma proteins (plasma proteins): approximately 98%
- Ctrough.ss, geometric mean (%CV) ([2]; all participants, n = 667): 4.33 (89.7) μg/mL
- Ctrough.ss, geometric mean (%CV) [2, 5]: 4.90 (89.7) µg/mL
- Ctrough.ss, geometric mean (%CV) ([2]; healthy volunteers, n = 133): 2.89 (71.7) μg/mL
- Ctrough.ss, geometric mean (%CV) [2, 6]: 5.13 (93.0) µg/mL
- GM AUC0-τ higher in transplant patients with CMV infection than in healthy volunteers ([2]; 400 mg BID, steady state): 27%
- GM Cmax.ss higher in transplant patients with CMV infection than in healthy volunteers ([2]; 400 mg BID, steady state): 5%
- AUC ([2]; all participants, n = 667): 121 µg·h/mL
- Cmax ([2]; all participants, n = 667): 17200 ng/mL
- half-life ([2]; all participants, n = 667): 654 min
- AUC [2, 5]: 128 µg·h/mL
- Cmax [2, 5]: 17200 ng/mL
- AUC ([2]; healthy volunteers, n = 133): 101 µg·h/mL
- Cmax ([2]; healthy volunteers, n = 133): 16400 ng/mL
- half-life ([2]; healthy volunteers, n = 133): 542 min
- Cmax [2, 6]: 16900 ng/mL
- AUC ([2]; transplant patients with refractory CMV infection (SOLSTICE only), n = 253): 129 µg·h/mL
- GM AUC0-τ higher in underweight (BMI < 18.5 kg/m^2) than normal-weight patients [2, 7]: 24%
- GM AUC0τ higher in female than male patients [2, 7]: 19%
- GM Cmax.ss higher in female than male patients [2, 7]: 25%
- GM Cmax.ss higher in underweight (BMI < 18.5 kg/m^2) than normal-weight patients [2, 7]: 31%
- Maribavir exposure between patients with no, Child-Pugh class A, or Child-Pugh class B hepatic impairment [2, 7]: similar
- Maribavir exposure with or without PPI [2, 7]: similar
- Maribavir exposure with or without histamine H2 blockers [2, 7]: similar
- AUC0-τ higher in patients aged 75 to < 85 years vs 18 to < 65 years [2, 8]: 54%
- Cmax.ss higher in patients aged 75 to < 85 years vs 18 to < 65 years [2, 8]: 38%
- Share of CYP-mediated metabolism by CYP3A4 [3]: 70–85%
- Share of CYP-mediated metabolism by CYP1A2 [4]: 15–30%
